Source: article PMC4459817, “Vasculotide reduces endothelial permeability and tumor cell extravasation in the absence of binding to or agonistic activation of Tie2” (EMBO Molecular Medicine, 2015)

What was measured:
[1] = tested on: Tie2 in lung, kidney, liver homogenates; assay: in vivo Tie2 phosphorylation in liver, lungs, kidneys; parameters: species or system mouse
Description: Tumor-free mice were treated for 1 week with either vehicle, VT (250 ng/2 days), SU (60 mg/kg/day), or VT+SU and then sacrificed 5 h after their last doses of treatment. Tissue homogenates derived from EC-rich organs (livers, lungs, kidneys) were subjected to Tie2 immunoprecipitation and then immunoblotted for phosphorylated Tie2 (Fig8: ‘p-Tie2’) or total Tie2 (Fig8: ‘Tie2’).
Figure 8 In vivo Vasculotide treatments: effects on Tie2 receptor phosphorylation in vascular-rich organs (liver, lungs, and kidneys) • Healthy non-tumor-bearing mice (n = 8–9 per group) were treated for 1 week with vehicle (Veh); Vasculotide 250 ng/2 days IP (VT); sunitinib 60 mg/kg/day PO (SU); or VT + SU. Tie2 immunoprecipitates from lung, kidney, or liver homogenates were pooled from two mice per treatment group and immunoblotted with an anti-Tie2 antibody (‘Tie2’) or an anti-phosphotyrosine antibody (‘p-Tie2’). • Densitometry analysis of immunoblots from (A). pTie2/Tie2 ratios were internally normalized to the vehicle group within each blot. Means ± SEM and P values (unpaired t-tests) are depicted. Source data are available online for this figure.
5. Bioluminescence imaging (BI) of tumor burden
For in vivo BI: Mice were injected intraperitoneally with 150mg/kg luciferin (Promega) 10 minutes prior to and anesthetized with isofluorane just before luminescent pseudocolor imaging (uniform settings: CCD camera locked at -105 °C, exposure=60s, f/1, subject size=1.5cm, bin=8, FOV=23.2cm, full image correction) using the IVIS 200 Imaging System (Caliper/PerkinElmer). Using the Living Image software (v2.50.1, Xenogen), weekly images were analyzed under uniform color range on grayscale photographic overlay. Total fluxes (photons/sec) were quantified within consistent regions of interest and statistically compared ideally at a timepoint before any deaths have occurred. […]
Quantification procedure involved visual survey of entire tissue sections and tallying of DAB-stained metastatic nodules sizes (# cells) at 20-40X on a Leica DM LB2 Microscope. […]

[2] = tested on: tumor cells across dermal HMVECs; assay: modified Boyden chamber, TC-CM stimulated tumor cell migration; assay type: cell-based, human; conditions: Fig4B; for TC migration in presence of TC-CM: 20 ng/mL VT or 400 ng/mL Ang1 vs PBS, paired t-test, n = 6 experimental replicates; for inhibition of TC migration, on average: 20 ng/mL VT
Description: To investigate this possibility in vitro, we performed modified Boyden chamber assays where we stimulated ECs with tumor cell-conditioned media (TC-CM)—that is, supplement-reduced EC growth media containing all the cytokines naturally secreted by LM2-4^luc, SN12^luc, or HT29^luc cells over 30 hours of hypoxic incubation (1% O2).
Meta-analyses of treatment effects on dextran permeability (A) and tumor cell migration (B), where each datapoint represents the mean of an independent experiment, averaged over 2–3 biological replicates (inserts) per treatment group and normalized internally within that same experiment.
Endothelial cells (ECs) were grown on cell culture inserts with uncoated 8-μm-pore PET filter membranes to 100% confluency. See Supplementary Fig S4 for detailed timelines. […] Permeability assays: A total of 100 μg of FITC-dextran (Sigma FD-20S) was dispensed into the upper chamber media. After 30 min of thrombin stimulation or 4–6 h of TC-CM stimulation, FITC fluorescence (ex/em = 490/520 nm) was measured from a 50 μl sample of the lower chamber media. Tumor cell extravasation assays: A total of 4 × 10^4 TCs freshly labeled with CellTracker™ Red CMPTX (Invitrogen C34552: ex/em = 577/602 nm) were seeded into each insert. Where EDTA was used in the permeability assay, the assay media was changed to remove EDTA before introducing TCs. After a 15- to 30-h incubation, the ECs and non-migrated TCs above insert membranes were removed with a cotton swab, whereas migrated/‘extravasated’ TCs and ECs below insert membranes were fixed in 4% PFA. Fixed membranes were mounted onto slides with DAPI stain. CMPTX fluorescence from migrated TCs was then quantified from 10× microscopy images using a MATLAB (MathWorks, Natick, MA, USA) script; five images (technical replicates) were analyzed per insert.
TCs were cultured in DMEM High Glucose basal media supplemented with 5% FBS and grown humidified incubators at 37 °C, 21%O2 and 5%CO2 unless otherwise specified. LM2-4 luc is a highly metastatically aggressive variant of the human breast carcinoma MDA-MB-231 cell line (derived through serial in vivo selection of lung metastases from orthotopic implantations in immunodeficient mice) that has been transfected with a firefly luciferase vector (Man et al, 2007; Ebos et al, 2009). HT29luc is a human colon carcinoma cell line also transfected with the luciferase gene (Hackl et al, 2013). SN12luc refers to a luciferase-tagged and highly metastatic clone of a human renal cell carcinoma cell line, SN12-

Row | Molecule | Tie2 phosphorylation, sunitinib effect ([1]; SU 60 mg/kg/day, stated in Discussion) | TC migration in presence of TC-CM [2] | inhibition of TC migration, on average ([2]; LM2-4luc-conditioned media) [%] | inhibition of TC migration, on average ([2]; SN12luc-conditioned media) [%] | ratio of phosphorylated Tie2 relative to total Tie2 (pTie2/Tie2) ([1]; 1 week, VT 250 ng/2 days IP, SU 60 mg/kg/day PO or VT + SU, liver, lungs, kidneys, n = 8–9, Fig8) | lung-specific pTie2/Tie2 vs. vehicle ([1]; VT 250 ng/2 days IP, 1 week, unpaired t-test, Fig8)
1 | CCN(CC)CCNC(=O)c1c(C)[nH]c(/C=C2\C(=O)Nc3ccc(F)cc32)c1C [sunitinib, reference compound] | inhibition of Tie2 phosphorylation | – | – | – | – | –
2 | CHHHRHSF [Vasculotide, 4-armed maleimide-functionalized polyethylene glycol (PEG) backbone to link together four cysteine-capped T7 peptides, that is, CHHHRHSF] | – | P = 0.10 for VT | −43 | −23 | did not increase the ratio of phosphorylated Tie2 relative to total Tie2 | significantly lower
3 | recombinant human Ang1 (rhAng1) (ligand, UniProt Q15389 16-498, looked up, angiopoietin-1, human, recombinant; also called angiopoietin-1; source: bought: R&D Systems (named for the Boyden chamber experiments)) HIGCSNQRRSPENSGRRYNRIQHGQCAYTFILPEHDGNCRESTTDQYNTNALQRDAPHVEPDFSSQKLQHLEHVMENYTQWLQKLENYIVENMKSEMAQIQQNAVQNHTATMLEIGTSLLSQTAEQTRKLTDVETQVLNQTSRLEIQLLENSLSTYKLEKQLLQQTNEILKIHEKNSLLEHKILEMEGKHKEELDTLKEEKENLQGLVTRQTYIIQELEKQLNRATTNNSVLQKQQLELMDTVHNLVNLCTKEGVLLKGGKREEEKPFRDCADVYQAGFNKSGIYTIYINNMPEPKKVFCNMDVNGGGWTVIQHREDGSLDFQRGWKEYKMGFGNPSGEYWLGNEFIFAITSQRQYMLRIELMDWEGNRAYSQYDRFHIGNEKQNYRLYLKGHTGTAGKQSSLILHGADFSTKDADNDNCMCKCALMLTGGWWFDACGPSNLNGMFYTAGQNHGKLNGIKWHYFKGPSYSLRSTTMMIRPLDF | – | P < 0.05 for Ang1 | – | – | – | –
